# Laboratory results from BigSolDB 2.1.
# Conditions: 298.2 K
compound,measurement,setting,value
O=C(c1ccccc1)c1ccc(O)cc1O,solubility (mole fraction),in 2-ethoxyethanol,0.0308
same,solubility (mole fraction),in 2-isopropoxyethanol,0.0333
same,solubility (mole fraction),in chlorobenzene,0.0044
same,solubility (mole fraction),in cyclohexane,5.07e-05
same,solubility (mole fraction),in diisopropyl ether,0.00744
same,solubility (mole fraction),in ethylbenzene,0.00408
same,solubility (mole fraction),in isooctane,3.31e-05
same,solubility (mole fraction),in m-xylene,0.00415
same,solubility (mole fraction),in methylcyclohexane,6.92e-05
same,solubility (mole fraction),in n-butanol,0.0109
same,solubility (mole fraction),in n-heptane,3.82e-05
same,solubility (mole fraction),in n-heptanol,0.018
same,solubility (mole fraction),in n-hexane,3.26e-05
same,solubility (mole fraction),in n-hexanol,0.0161
same,solubility (mole fraction),in n-octane,4.43e-05
same,solubility (mole fraction),in n-octanol,0.0183
same,solubility (mole fraction),in n-pentanol,0.0125
same,solubility (mole fraction),in o-xylene,0.00429
same,solubility (mole fraction),in p-xylene,0.00448
same,solubility (mole fraction),in sec-butanol,0.0103
same,solubility (mole fraction),in toluene,0.00364
